Measured values: ChEMBL document CHEMBL1151316, “Pyrrolizidine alkaloids from Heliotropium megalanthum” (J Nat Prod, 1998)

Legend:
[1] = test system: Leptinotarsa decemlineata; assay: Insecticidal activity against haemolymph dosed Leptinotarsa decemlineata assessed as increase in mortality after 2 days; type: functional
[2] = test system: Spodoptera littoralis; assay: Antifeedant activity in Spodoptera littoralis L6 larvae assessed as reduction of feeding at 5 ug/cm2 by choice test; type: functional; set-up: scale not given: the % may be the effect or the level left
[3] = test system: Leptinotarsa decemlineata; assay: Antifeedant activity in Leptinotarsa decemlineata assessed as reduction of feeding by no-choice test; type: functional, organism-based
[4] = test system: Leptinotarsa decemlineata; assay: Antifeedant activity in Leptinotarsa decemlineata assessed as reduction of feeding by choice test; type: functional, organism-based
[5] = test system: Leptinotarsa decemlineata; assay: Antifeedant activity in Leptinotarsa decemlineata assessed as reduction of feeding at 100 ug/cm2 by no-choice test; type: functional; set-up: scale not given: the % may be the effect or the level left
[6] = test system: Spodoptera littoralis; assay: Insecticidal activity against orally dosed Spodoptera littoralis L6 larvae assessed as relative growth rate after 72 hrs; type: functional
[7] = test system: Spodoptera littoralis; assay: Antifeedant activity in Spodoptera littoralis L6 larvae assessed as reduction of feeding at 100 ug/cm2 by choice test; type: functional; set-up: scale not given: the % may be the effect or the level left
[8] = test system: Spodoptera littoralis; assay: Antifeedant activity in Spodoptera littoralis L6 larvae assessed as reduction of feeding by choice test; type: functional, organism-based
[9] = test system: Leptinotarsa decemlineata; assay: Antifeedant activity in Leptinotarsa decemlineata assessed as reduction of feeding at 100 ug/cm2 by choice test; type: functional; set-up: scale not given: the % may be the effect or the level left
[10] = test system: Spodoptera littoralis; assay: Insecticidal activity against orally dosed Spodoptera littoralis L6 larvae assessed as relative consumption rate after 72 hrs; type: functional

Question: Which Activity [1] does the source give for `CC(C)[C@@](O)(C(=O)OC[C@H]1CCN2CC[C@@H](O)[C@@H]12)[C@H](C)O` [MEGALANTHONINE] here?
Answer: 10%

Question: Which Activity [2] does the source give for `CO[C@@H](C)[C@](O)(C(=O)OCC1=CCN2CC[C@H](O)[C@@H]12)C(C)(C)O` [EUROPINE] here?
Answer: 67%

Question: Which results are given for `CC(=O)O[C@H](C)[C@](O)(C(=O)OC[C@@H]1CCN2CCC[C@@H]12)C(C)C`?
Answer: EC50 [3]: 2.92 microg/cm2; EC50 [4]: 1.79 microg/cm2; Activity [1]: 5%

Question: Which results are given for `CC(C)[C@](O)(C(=O)OCC1=CCN2CC[C@@H](O)[C@@H]12)[C@@H](C)O` [LYCOPSAMINE]?
Answer: Activity [5]: 68.4%; EC50 [3]: 25.97 microg/cm2; Activity [6]: 3.32 mg; Activity [7]: 61.08%; EC50 [8]: 31.62 microg/cm2; Activity [9]: 27.53%; Activity [10]: 21.19 mg; Activity [1]: 12%
